Data from BindingDB's records for doi:10.1021/jm0303352 (National Center For Genetic Engineering and Biotechnology …, 2004).

Tests used:
[1] = In vitro antimalarial activity against Plasmodium falciparum TM4/8.2 wtDHFR
[2] = In vitro antimalarial activity against Plasmodium falciparum K1CB1 double DHFR mutant (C59R/S108N)
[3] = In vitro antimalarial activity relative to trimethoprim against Plasmodium falciparum TM4/8.2 wtDHFR
[4] = In vitro antimalarial activity against Plasmodium falciparum Csl-2 triple DHFR mutant (C59R/S108N/I164L)/
[5] = In vitro antimalarial activity against Plasmodium falciparum Vl/S with quadruple DHFR mutant (N51I/C59R/S108N/I164L)
[6] = In vitro antimalarial activity against Plasmodium falciparum K1CB1 double DHFR mutation (C59R/S108N) relative to trimethoprim
[7] = In vitro antimalarial activity against Plasmodium falciparum Csl-2 triple DHFR mutant (C59R/S108N/I164L) relative to trimethoprim
[8] = In vitro antimalarial activity relative to trimethoprim against Plasmodium falciparum Vl/S with quadruple DHFR mutant (N51I/C59R/S108N/I164L)

COc1ccc(Cc2cnc(N)nc2N)cc1OCc1ccccc1 [5-(3-Benzyloxy-4-methoxy-benzyl)-pyrimidine-2,4-diamine]
IC50 [1]: 17.5 µM | IC50 [2]: 3.83 µM | IC50 ratio [3]: 2.62 | IC50 [4]: 5.73 µM | IC50 [5]: > 50 µM | IC50 ratio [6]: 0.03 | IC50 ratio [7]: 0.05 | IC50 ratio [8]: 0.25

COc1cc(Cc2c(C)nc(N)nc2N)ccc1OCc1ccccc1 [5-(4-(benzyloxy)-3-methoxybenzyl)-6-methylpyrimidine-2,4-diamine]
IC50 [1]: 6.84 µM | IC50 [2]: 25.2 µM | IC50 ratio [3]: 1.03 | IC50 [4]: 2.85 µM | IC50 [5]: 4.82 µM | IC50 ratio [6]: 0.18 | IC50 ratio [7]: 0.02

CCc1nc(N)nc(N)c1Cc1ccc(OCc2ccccc2)c(OC)c1 [5-(4-Benzyloxy-3-methoxy-benzyl)-6-ethyl-pyrimidine-2,4-diamine]
IC50 [1]: 5.06 µM | IC50 [2]: 16.3 µM | IC50 ratio [3]: 0.76 | IC50 [4]: 5.37 µM | IC50 [5]: 11.3 µM | IC50 ratio [6]: 0.12 | IC50 ratio [7]: 0.05

COc1cc(Cc2cnc(N)nc2N)ccc1OCc1cc(OC)c(OC)c(OC)c1 [5-[3-Methoxy-4-(3,4,5-trimethoxy-benzyloxy)-benzyl]-pyrimidine-2,4-diamine]
IC50 [1]: 0.31 µM | IC50 [2]: 27.8 µM | IC50 ratio [3]: 0.05 | IC50 [4]: 30.6 µM | IC50 [5]: 26.1 µM | IC50 ratio [6]: 0.13 | IC50 ratio [7]: 0.26
